Where two headings read alike, the source gives them in different places.
Key:
[1] = tested on: BCR-ABL^T315I Ba/F3 cells; assay: Western blots of CRAF immunoprecipitates and lysates, BCR-ABL^T315I Ba/F3 cells
BCR-ABL Ba/F3 cells [2] = assay: Western blots of CRAF immunoprecipitates and lysates, BCR-ABL Ba/F3 cells
BRAF = BRAF (Homo sapiens, UniProt P15056); assay: RAF kinase assay, myc-tagged BRAF captured from COS cells; conditions: various GNF-2 concentrations, 30 min
K562R cells [3] = assay: Apoptosis; assay type: cell-based, human; conditions: PD184352 1μM, 4 days
[4] = tested on: CD34+ hematopoietic cells from healthy individuals; assay: Cell proliferation; conditions: nilotinib 1μM, PD184352 0.3μM, 96 hr
[5] = tested on: BCR-ABL^T315I Ba/F3 allografts; assay: Tumor allograft growth, BCR-ABL^T315I Ba/F3 cells in nude mice; assay type: in vivo; conditions: BCR-ABL^T315I tumors; 25 mg/kg, oral gavage daily
[6] = tested on: BCR-ABL^T315I expressing mononuclear cells from imatinib-resistant CML patients; assay: Cell proliferation; conditions: primary BCR-ABL^T315I cells; nilotinib 1μM, PD184352 0.3μM, 96 hr
[7] = tested on: BCR-ABL^G250E/T315I, BCR-ABL^E255K/T315I and BCR-ABL^E255V/T315I Ba/F3 cells; assay: Cell proliferation, Ba/F3 cells expressing compound BCR-ABL mutants; conditions: Ba/F3 cells with compound BCR-ABL mutants; PD184352 2μM, nilotinib 1μM, 4 days
BCR-ABL Ba/F3 cells [8] = assay: Cell proliferation, BCR-ABL Ba/F3 cells; conditions: PD184352 2μM, imatinib 3μM, nilotinib 1μM, 4 days
BCR-ABL Ba/F3 cells [9] = assay: Apoptosis; conditions: 4 days
K562 cells [10] = assay: Apoptosis; assay type: cell-based, human; conditions: PD184352 1μM, 4 days
[11] = tested on: BCR-ABL^T315I Ba/F3 cells; assay: Apoptosis; conditions: 4 days
BV173 cells [12] = assay: Cell proliferation and apoptosis; conditions: PD184352 0.2μM, nilotinib 0.1μM, 6 days
BV173R cells = assay: Cell proliferation and apoptosis; conditions: for cell death (apoptotic sub-G1 cells): 72 hr, absence of PD184352
BRAF binding to CRAF = BRAF binding to CRAF with PLX4720; assay type: cell-based; conditions: Fig S3C; cells not given
CRAF [13] = target: T1, CRAF (Homo sapiens, UniProt P04049); conditions: D04 cells; imatinib 10μM, nilotinib 1μM, dasatinib 5μM, 3 hr
[14] = tested on: K562 cells expressing HRAS^G12V; assay type: cell-based, human; conditions: for BRAF binding to CRAF: imatinib 10μM, nilotinib 1μM, dasatinib 5μM; for MEK and ERK phosphorylation: pathway already saturated
CRAF [15] = target: T1, CRAF; assay: RAF kinase assay, myc-tagged CRAF captured from COS cells; conditions: imatinib 10μM, nilotinib 1μM, dasatinib 5μM
CRAF^T421N = CRAF^T421N (Homo sapiens, UniProt P04049, T421N); assay: RAF kinase assay, myc-tagged CRAF^T421N captured from COS cells; conditions: gatekeeper mutant; imatinib 10μM, nilotinib 1μM, dasatinib 5μM
D04 cells (NRAS^Q61L) = conditions: western blot
BV173 cells [16] = assay: Western blots of CRAF immunoprecipitates and lysates, BV173 cells; assay type: cell-based, human
[17] = tested on: SW620 (KRAS^G12V), Panc1 (KRAS^G12D) and H460 (KRAS^Q61H) cells; assay: Western blot for MEK and ERK activation in KRAS mutant cells; assay type: cell-based, human; conditions: imatinib 10μM, nilotinib 1μM, dasatinib 5μM
[18] = patient plasma; ref Weisberg et al., 2007; Demetri et al., 2002; cited from earlier work
K562 cells [19] = assay: Western blots of CRAF immunoprecipitates and lysates, K562 cells; assay type: cell-based, human; conditions: for BRAF binding to CRAF: imatinib 10μM, nilotinib 1μM, dasatinib 5μM
[20] = tested on: BV173R cells (BCR-ABL^T315I)
CRAF [21] = target: T2, CRAF (Mus musculus, UniProt Q99N57); conditions: BCR-ABL^T315I Ba/F3 cells
RAS [22] = assay: RAS activity in K562R cells; assay type: cell-based, human
BCR-ABL Ba/F3 allografts = assay: Tumor allograft growth, BCR-ABL Ba/F3 cells in nude mice; assay type: in vivo; conditions: BCR-ABL tumors; 25 mg/kg, oral gavage daily
K562R cells [23] = assay: Western blots, K562R cells; assay type: cell-based, human
RAS [24] = assay: RAS-GTP capture assay, BCR-ABL Ba/F3 cells; assay type: cell-based, murine; conditions: nilotinib 1μM, 60 min
RAS [25] = assay: RAS activity in K562 cells; assay type: cell-based, human
[26] = tested on: Ba/F3 cells expressing BCR-ABL^G250E/T315I, BCR-ABL^E255K/T315I and BCR-ABL^E255V/T315I; assay: Western blots, Ba/F3 cells expressing compound BCR-ABL mutants; assay type: cell-based, murine; conditions: Ba/F3 cells with compound BCR-ABL mutants
CRAF [27] = target: T2, CRAF; assay: Endogenous CRAF kinase activity in BCR-ABL Ba/F3 cells
[28] = tested on: mononuclear cells harbouring native BCR-ABL from newly diagnosed CML patients; conditions: primary BCR-ABL cells; nilotinib 1μM, PD184352 0.3μM, 96 hr
[29] = tested on: BCR-ABL^T315I Ba/F3 cells; assay: Cell proliferation, BCR-ABL^T315I Ba/F3 cells

T2 sequence (Q99N57 whole entry): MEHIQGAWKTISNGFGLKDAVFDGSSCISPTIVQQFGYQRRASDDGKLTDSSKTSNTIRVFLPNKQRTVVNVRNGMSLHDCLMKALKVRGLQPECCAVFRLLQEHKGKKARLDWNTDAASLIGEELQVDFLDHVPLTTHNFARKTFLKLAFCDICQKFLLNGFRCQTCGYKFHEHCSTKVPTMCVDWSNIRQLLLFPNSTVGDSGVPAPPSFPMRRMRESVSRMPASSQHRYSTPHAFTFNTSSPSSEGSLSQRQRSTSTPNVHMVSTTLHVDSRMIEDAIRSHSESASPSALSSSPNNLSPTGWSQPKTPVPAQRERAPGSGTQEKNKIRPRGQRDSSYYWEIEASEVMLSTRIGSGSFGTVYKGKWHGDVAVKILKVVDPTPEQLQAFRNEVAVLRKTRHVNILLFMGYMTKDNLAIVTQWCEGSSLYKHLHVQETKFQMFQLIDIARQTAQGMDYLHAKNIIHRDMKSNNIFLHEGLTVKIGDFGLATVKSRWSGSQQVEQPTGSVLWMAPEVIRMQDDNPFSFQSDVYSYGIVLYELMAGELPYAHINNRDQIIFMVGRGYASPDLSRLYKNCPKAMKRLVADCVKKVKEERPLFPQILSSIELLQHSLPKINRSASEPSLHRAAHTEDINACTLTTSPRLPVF
BRAF, sequence (P15056 whole entry): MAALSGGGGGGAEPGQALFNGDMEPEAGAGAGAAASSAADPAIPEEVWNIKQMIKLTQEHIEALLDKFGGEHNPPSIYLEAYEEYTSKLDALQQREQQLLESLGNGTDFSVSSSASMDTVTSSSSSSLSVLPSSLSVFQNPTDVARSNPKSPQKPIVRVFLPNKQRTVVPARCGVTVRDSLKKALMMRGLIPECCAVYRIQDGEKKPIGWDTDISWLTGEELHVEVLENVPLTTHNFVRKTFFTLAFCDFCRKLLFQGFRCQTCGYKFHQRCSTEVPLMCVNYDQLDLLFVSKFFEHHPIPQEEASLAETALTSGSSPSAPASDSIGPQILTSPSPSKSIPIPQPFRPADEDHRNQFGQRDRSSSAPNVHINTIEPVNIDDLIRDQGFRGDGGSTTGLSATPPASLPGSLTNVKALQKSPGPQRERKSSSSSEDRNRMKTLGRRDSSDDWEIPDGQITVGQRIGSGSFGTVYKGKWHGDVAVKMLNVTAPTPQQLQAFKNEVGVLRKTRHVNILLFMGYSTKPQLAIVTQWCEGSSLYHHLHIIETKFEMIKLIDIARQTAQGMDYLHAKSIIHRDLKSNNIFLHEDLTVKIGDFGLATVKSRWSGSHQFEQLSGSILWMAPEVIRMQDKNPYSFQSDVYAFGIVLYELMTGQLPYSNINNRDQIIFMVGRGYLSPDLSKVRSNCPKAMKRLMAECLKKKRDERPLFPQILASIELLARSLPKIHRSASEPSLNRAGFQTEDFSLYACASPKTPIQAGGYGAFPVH

## NC(=O)c1cccc(-c2cc(Nc3ccc(OC(F)(F)F)cc3)ncn2)c1 [GNF-2]
[1]; BCR-ABL^T315I Ba/F3 cells
  BCR-ABL and CRKL phosphorylation: did not block BCR-ABL or CRKL phosphorylation
  BRAF binding to CRAF: did not induce BRAF binding to CRAF
  CRAF (S338) phosphorylation, MEK and ERK activity/phosphorylation: did not increase CRAF, MEK or ERK phosphorylation
BCR-ABL Ba/F3 cells [2]; BCR-ABL Ba/F3 cells
  BCR-ABL (Y245) and CRKL (Y207) phosphorylation: blocked
  CRAF (S338) phosphorylation, MEK and ERK activity/phosphorylation: blocked
BRAF
  BRAF activity in vitro: did not inhibit BRAF activity in vitro

## Oc1cc(-c2nc(-c3ccccc3)[nH]c2-c2ccncc2)ccc1Cl [L779450]
BCR-ABL Ba/F3 cells [2]; BCR-ABL Ba/F3 cells
  BCR-ABL (Y245) and CRKL (Y207) phosphorylation: Neither agent inhibited BCR-ABL or CRKL phosphorylation
  BRAF binding to CRAF: stimulated BRAF binding to CRAF
  CRAF (S338) phosphorylation, MEK and ERK activity/phosphorylation: stimulated

## O=C(NOCC1CC1)c1ccc(F)c(F)c1Nc1ccc(I)cc1Cl [PD184352]
K562R cells [3]
  growth / cell death: did not affect the growth
[4]
  cell proliferation: resistant
[5]
  tumor growth: insensitive
[6]
  cell growth: did not affect the growth
[7]
  cell proliferation: did not affect proliferation
BCR-ABL Ba/F3 cells [8]
  cell growth: did not inhibit the growth
BCR-ABL Ba/F3 cells [9]
  apoptosis: did not induce apoptosis
K562 cells [10]
  apoptosis / cell death: did not kill these cells
[11]
  apoptosis: did not induce apoptosis
BV173 cells [12]
  cell proliferation and apoptosis: did not inhibit cell proliferation or induce apoptosis
BV173R cells; PD184352 0.2μM, nilotinib 0.1μM, 6 days
  cell proliferation and apoptosis: did not inhibit cell proliferation or induce apoptosis

## CCCS(=O)(=O)Nc1ccc(F)c(C(=O)c2c[nH]c3ncc(Cl)cc23)c1F [PLX4720]
BRAF binding to CRAF
  BRAF binding to CRAF: did not induce strong binding of BRAF to CRAF

## Cn1c(Nc2ccc(C(F)(F)F)cc2)nc2cc(Oc3ccnc(-c4ncc(C(F)(F)F)[nH]4)c3)ccc21 [RAF265]
[1]; BCR-ABL^T315I Ba/F3 cells
  BCR-ABL and CRKL phosphorylation: did not inhibit BCR-ABL or CRKL phosphorylation
  BRAF binding to CRAF: induced BRAF binding to CRAF
BV173R cells
  cell death (apoptotic sub-G1 cells): induced cell death

## CN(C)CCOc1ccc(-c2nc(-c3ccncc3)c(-c3ccc4c(c3)CC/C4=N\O)[nH]2)cc1 [SB590885]
BCR-ABL Ba/F3 cells [2]; BCR-ABL Ba/F3 cells
  BCR-ABL (Y245) and CRKL (Y207) phosphorylation: Neither agent inhibited BCR-ABL or CRKL phosphorylation
  BRAF binding to CRAF: stimulated BRAF binding to CRAF
  CRAF (S338) phosphorylation, MEK and ERK activity/phosphorylation: stimulated

## Cc1nc(Nc2ncc(C(=O)Nc3c(C)cccc3Cl)s2)cc(N2CCN(CCO)CC2)n1 [dasatinib]
CRAF [13]
  endogenous CRAF kinase activity: activated
[14]
  BRAF binding to CRAF: induced BRAF binding to CRAF
  MEK and ERK phosphorylation: did not increase MEK and ERK phosphorylation
CRAF [15]
  CRAF kinase activity in vitro: inhibited
CRAF^T421N
  CRAF^T421N kinase activity in vitro: resistant
D04 cells (NRAS^Q61L)
  lowest concentration stimulating robust MEK and ERK phosphorylation: 100 nM
BV173 cells [16]
  BCR-ABL and CRKL phosphorylation: inhibited BCR-ABL and CRKL phosphorylation
  BRAF binding to CRAF: did not induce BRAF binding to CRAF
  MEK and ERK activity: inhibited MEK and ERK
[17]
  MEK and ERK activation: activated MEK and ERK
[18]
  peak plasma/serum concentration: ~90 nM
K562 cells [19]
  BRAF binding to CRAF: did not induce BRAF binding to CRAF

## Cc1cn(-c2cc(NC(=O)c3ccc(C)c(Nc4nccc(-c5cccnc5)n4)c3)cc(C(F)(F)F)c2)cn1 [nilotinib]
CRAF [13]
  endogenous CRAF kinase activity: activated
K562R cells [3]
  growth / cell death: did not affect the growth
[20]
  BRAF binding to CRAF: induced BRAF binding to CRAF
  MEK and ERK activity: activated MEK and ERK
[4]
  cell proliferation: resistant
[5]
  tumor growth: insensitive
[14]
  BRAF binding to CRAF: induced BRAF binding to CRAF
  MEK and ERK phosphorylation: did not increase MEK and ERK phosphorylation
[6]
  cell growth: did not affect the growth
[7]
  cell proliferation: did not affect proliferation
CRAF [21]
  CRAF activity: activated CRAF
BCR-ABL Ba/F3 cells [8]
  cell growth: sensitive
RAS [22]
  RAS activity: did not inhibit RAS
[1]
  BRAF binding to CRAF: enhanced BRAF binding to CRAF
  CRAF (S338) phosphorylation, MEK and ERK activity/phosphorylation: induced CRAF phosphorylation on S338 (Fig 3C) and activated CRAF (Fig 3D), MEK and ERK
[1]; BCR-ABL^T315I Ba/F3 cells
  BCR-ABL and CRKL phosphorylation: did not inhibit BCR-ABL or CRKL phosphorylation
BCR-ABL Ba/F3 allografts
  tumor growth: strongly suppressed
K562R cells [23]
  BCR-ABL and CRKL phosphorylation: blocked BCR-ABL and CRKL phosphorylation
  CRAF, MEK and ERK phosphorylation: did not block CRAF, MEK or ERK phosphorylation
RAS [24]
  RAS activity (RAS-GTP): blocked RAS activity
CRAF [15]
  CRAF kinase activity in vitro: inhibited
CRAF^T421N
  CRAF^T421N kinase activity in vitro: resistant
D04 cells (NRAS^Q61L)
  lowest concentration stimulating robust MEK and ERK phosphorylation: 100 nM
BV173 cells [16]
  BCR-ABL and CRKL phosphorylation: inhibited BCR-ABL and CRKL phosphorylation
  BRAF binding to CRAF: did not induce BRAF binding to CRAF
  MEK and ERK activity: inhibited MEK and ERK
[17]
  MEK and ERK activation: activated MEK and ERK
RAS [25]
  RAS activity: suppressed RAS activity
[26]
  BCR-ABL and CRKL phosphorylation: did not inhibit BCR-ABL or CRKL phosphorylation
  BRAF binding to CRAF, MEK and ERK activation: induced BRAF binding to CRAF as well as MEK and ERK activation
[18]
  peak plasma/serum concentration: ~4000 nM
K562 cells [19]
  BCR-ABL and CRKL phosphorylation: inhibited BCR-ABL and CRKL phosphorylation
  CRAF, MEK and ERK phosphorylation: inhibited CRAF, MEK and ERK phosphorylation
  BRAF binding to CRAF: did not induce BRAF binding to CRAF
BCR-ABL Ba/F3 cells [2]
  BRAF binding to CRAF: did not affect BRAF binding to CRAF
BCR-ABL Ba/F3 cells [2]; BCR-ABL Ba/F3 cells
  BCR-ABL (Y245) and CRKL (Y207) phosphorylation: blocked
BCR-ABL Ba/F3 cells [9]
  apoptosis: induced apoptosis
K562 cells [10]
  apoptosis / cell death: induced apoptosis
CRAF [27]
  CRAF activity: blocked CRAF activity
[28]
  cell proliferation: inhibited the proliferation
BV173 cells [12]
  cell proliferation and apoptosis: inhibited cell proliferation and induced apoptosis
[29]
  cell growth: resistant

## CNC(=O)c1cc(Oc2ccc(NC(=O)Nc3ccc(Cl)c(C(F)(F)F)c3)cc2)ccn1 [sorafenib]
BV173R cells
  cell death (apoptotic sub-G1 cells): induced cell death

Source: publication PMC3951999 (Cancer cell, 2011)
